# In ChEMBL document CHEMBL5104188, “Discovery and Characterization of Synthesized and FDA-Approved Inhibitors of Clostridial and Bacillary Collagenases” (J Med Chem, 2022):
# pIC50, pKi: −log10 of the molar value. Active and inactive are the calls of the source. No cut-off for these calls is given here.
# Legend:
# [1] = system: NHDF; assay: Inhibition of Bacillus cereus collagenase infected in NHDF cells assessed as suppression of gelatin lysis at 100 uM incubated for 1 to 6 hrs by coomassie brilliant blue staining based zymography analysis; type: cell-based; conditions: time 1-6 hrs
# [2] = system: NHDF; assay: Inhibition of Bacillus cereus collagenase infected in NHDF cells assessed as reduction in cell viability at 25 to 100 uM; type: cell-based; conditions: dose 25-100 µM
# [3] = system: NHDF; assay: Inhibition of Bacillus cereus collagenase infected in NHDF cells assessed as prevention of cell detachment at 25 to 100 uM incubated for 1 to 6 hrs by coomassie brilliant blue staining based SDS-PAGE analysis; conditions: dose 25-100 µM, time 1-6 hrs
# [4] = target: T1, Collagenase ColH (Hathewaya histolytica, UniProt Q46085); assay: Inhibition of Clostridium histolyticum CoLH using M MOCAcPro-Leu-Gly-Leu-A2pr-(DNP)Ala-Arg-NH2 as substrate incubated for 10 mins by fluorescence spectrophotometer analysis
# T1 sequence (Q46085 whole entry): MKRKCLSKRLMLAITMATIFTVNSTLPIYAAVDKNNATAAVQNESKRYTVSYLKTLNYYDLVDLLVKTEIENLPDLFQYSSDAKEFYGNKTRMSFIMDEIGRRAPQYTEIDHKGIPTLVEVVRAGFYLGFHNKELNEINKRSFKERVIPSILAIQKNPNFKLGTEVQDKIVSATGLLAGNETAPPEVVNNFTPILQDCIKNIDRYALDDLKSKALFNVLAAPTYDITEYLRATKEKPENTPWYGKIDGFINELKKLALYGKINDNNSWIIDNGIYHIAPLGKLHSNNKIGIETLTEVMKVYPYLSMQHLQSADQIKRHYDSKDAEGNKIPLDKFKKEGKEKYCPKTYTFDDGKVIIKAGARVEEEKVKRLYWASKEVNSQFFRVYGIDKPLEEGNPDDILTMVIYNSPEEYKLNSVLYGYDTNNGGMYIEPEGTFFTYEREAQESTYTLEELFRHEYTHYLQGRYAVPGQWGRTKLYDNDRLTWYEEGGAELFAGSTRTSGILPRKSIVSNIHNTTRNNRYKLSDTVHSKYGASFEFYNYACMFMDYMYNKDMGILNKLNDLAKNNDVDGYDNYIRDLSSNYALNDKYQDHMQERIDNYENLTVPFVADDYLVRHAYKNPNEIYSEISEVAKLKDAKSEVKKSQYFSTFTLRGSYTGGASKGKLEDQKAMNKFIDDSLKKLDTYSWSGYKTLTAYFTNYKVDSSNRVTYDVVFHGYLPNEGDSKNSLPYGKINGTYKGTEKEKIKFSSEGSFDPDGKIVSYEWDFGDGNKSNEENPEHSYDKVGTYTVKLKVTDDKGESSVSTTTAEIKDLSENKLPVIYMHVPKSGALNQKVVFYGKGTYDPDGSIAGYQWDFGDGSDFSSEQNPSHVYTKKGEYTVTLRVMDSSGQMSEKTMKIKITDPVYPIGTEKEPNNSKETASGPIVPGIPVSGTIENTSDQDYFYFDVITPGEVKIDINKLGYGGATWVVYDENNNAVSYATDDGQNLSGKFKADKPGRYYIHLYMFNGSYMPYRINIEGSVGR
# [5] = target: 72 kDa type IV collagenase (Homo sapiens, UniProt P08253); assay: Inhibition of human MMP-2 assessed as inhibition constant using AcProLeuGly-S-LeuLeuGlyOEt as substrate by spectrophotometer analysis
# [6] = target: Neutrophil collagenase (Homo sapiens, UniProt P22894); assay: Inhibition of human MMP-8 assessed as inhibition constant using AcProLeuGly-S-LeuLeuGlyOEt as substrate by spectrophotometer analysis
# [7] = system: NHDF; assay: Inhibition of Bacillus cereus collagenase infected in NHDF cells assessed as reduction in cell viability at 100 uM; type: cell-based
# [8] = system: NHDF; assay: Inhibition of Bacillus cereus collagenase infected in NHDF cells assessed as prevention of cell detachment at 100 uM incubated for 1 to 6 hrs by coomassie brilliant blue staining based SDS-PAGE analysis; conditions: time 1-6 hrs
# [9] = system: NHDF; assay: Inhibition of Bacillus cereus collagenase infected in NHDF cells assessed as suppression of gelatin lysis at 200 uM incubated for 1 to 6 hrs by coomassie brilliant blue staining based zymography analysis; type: cell-based; conditions: time 1-6 hrs
# [10] = system: NHDF; assay: Inhibition of Bacillus cereus collagenase infected in NHDF cells assessed as protection of spindle shape morphology at > 100 uM incubated for 1 to 6 hrs by coomassie brilliant blue staining based SDS-PAGE analysis; type: cell-based; conditions: time 1-6 hrs
# [11] = system: NHDF; assay: Inhibition of Bacillus cereus collagenase infected in NHDF cells assessed as fibrillar extra cellular matrix at > 100 uM incubated for 1 to 6 hrs by coomassie brilliant blue staining based SDS-PAGE analysis; type: cell-based; conditions: time 1-6 hrs
# [12] = system: NHDF; assay: Inhibition of Bacillus cereus collagenase infected in NHDF cells assessed as reduction in LDH release at > 100 uM incubated for 30 mins by LDH assay; type: cell-based
# [13] = system: HepG2; assay: Cytotoxicity against human HepG2 cells assessed as reduction in cell viability; type: functional, cell-based
# [14] = system: NHDF; assay: Inhibition of Bacillus cereus collagenase infected in NHDF cells assessed as suppression of gelatin lysis incubated for 1 to 6 hrs by coomassie brilliant blue staining based zymography analysis; type: cell-based; conditions: dose 12.5-100 µM, time 1-6 hrs
# [15] = target: T2, Collagenase ColH (Hathewaya histolytica) (UniProt Q46085); assay: Reversible inhibition of Clostridium histolyticum peptidase domain of ColH at 1.25 uM using quenched fluorescent FSI-1 as substrate incubated for 2 min by rapid dilution assay
# T2 sequence (whole entry): T1 sequence (Q46085 whole entry)
# [16] = target: T3, Collagenase ColG (Clostridium histolyticum) (UniProt Q9X721); assay: Reversible inhibition of Clostridium histolyticum collagenase unit of ColG at 7.5 uM using quenched fluorescent FSI-1 as substrate incubated for 2 min by rapid dilution assay; conditions: Hathewaya histolytica
# T3 sequence (whole entry): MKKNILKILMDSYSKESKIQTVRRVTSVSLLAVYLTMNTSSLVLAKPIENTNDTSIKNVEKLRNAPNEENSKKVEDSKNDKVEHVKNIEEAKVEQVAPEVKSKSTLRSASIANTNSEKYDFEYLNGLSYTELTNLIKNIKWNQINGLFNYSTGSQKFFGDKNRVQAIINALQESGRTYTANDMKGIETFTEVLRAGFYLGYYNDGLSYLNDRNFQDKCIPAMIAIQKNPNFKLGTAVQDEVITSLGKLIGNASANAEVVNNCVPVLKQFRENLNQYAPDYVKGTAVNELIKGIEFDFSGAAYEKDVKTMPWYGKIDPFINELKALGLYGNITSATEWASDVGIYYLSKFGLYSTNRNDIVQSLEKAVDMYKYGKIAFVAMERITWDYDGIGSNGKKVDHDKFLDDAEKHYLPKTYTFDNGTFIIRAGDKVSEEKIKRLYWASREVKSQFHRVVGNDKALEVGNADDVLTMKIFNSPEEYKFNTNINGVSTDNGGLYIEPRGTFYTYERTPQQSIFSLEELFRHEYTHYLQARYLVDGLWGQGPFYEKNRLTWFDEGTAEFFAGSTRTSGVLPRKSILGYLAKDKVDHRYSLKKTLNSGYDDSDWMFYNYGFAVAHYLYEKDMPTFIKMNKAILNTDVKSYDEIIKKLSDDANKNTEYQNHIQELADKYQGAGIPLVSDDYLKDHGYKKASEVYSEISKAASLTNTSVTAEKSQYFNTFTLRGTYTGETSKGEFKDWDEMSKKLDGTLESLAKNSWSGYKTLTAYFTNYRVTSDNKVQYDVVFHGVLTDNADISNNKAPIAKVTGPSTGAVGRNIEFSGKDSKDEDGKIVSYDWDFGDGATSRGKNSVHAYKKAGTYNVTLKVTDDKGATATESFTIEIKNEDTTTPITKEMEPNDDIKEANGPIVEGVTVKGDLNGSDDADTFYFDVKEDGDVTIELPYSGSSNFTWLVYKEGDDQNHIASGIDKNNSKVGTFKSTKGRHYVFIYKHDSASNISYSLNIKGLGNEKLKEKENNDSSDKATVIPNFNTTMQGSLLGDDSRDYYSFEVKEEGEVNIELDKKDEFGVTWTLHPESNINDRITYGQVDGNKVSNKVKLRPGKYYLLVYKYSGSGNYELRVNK
# [17] = target: Collagenase ColA (Bacillus cereus) (UniProt Q81BJ6); assay: Irreversible inhibition of Bacillus cereus collagenase unit ColA at 0.125 uM using quenched fluorescent FSI-1 as substrate incubated for 2 min by rapid dilution assay
# [18] = system: Bacillus cereus; assay: In vivo inhibition of Bacillus cereus AH187 ColQ1 infected in Galleria mellonella larvae assessed as increase in survival rate at 100 uM incubated for 3 days; type: functional; conditions: AH187, 72 h, time 3 day
# [19] = target: T1, Collagenase ColH; assay: Inhibition of Clostridium histolyticum CoLH
# [20] = system: NHDF; assay: Inhibition of Bacillus cereus collagenase infected in NHDF cells assessed as prevention of cell detachment at 25 uM incubated for 1 to 6 hrs by coomassie brilliant blue staining based SDS-PAGE analysis; conditions: time 1-6 hrs
# [21] = system: NHDF; assay: Inhibition of Bacillus cereus collagenase infected in NHDF cells assessed as protection of spindle shape morphology at > 50 uM incubated for 1 to 6 hrs by coomassie brilliant blue staining based SDS-PAGE analysis; type: cell-based; conditions: time 1-6 hrs
# [22] = system: NHDF; assay: Inhibition of Bacillus cereus collagenase infected in NHDF cells assessed as reduction in LDH release at > 50 uM incubated for 30 mins by LDH assay; type: cell-based
# [23] = target: Collagenase ColQ1 (Bacillus cereus) (UniProt B9J3S4); conditions: dose 100.0 µM, time 144.0 sec
# [24] = target: Collagenase ColQ1 (Bacillus cereus) (UniProt B9J3S4); assay: Inhibition of full length Bacillus cereus ColQ1 assessed as reduction in Col 1 cleavage at 1.5 to 12.5 uM incubated for 3 hrs by SDS-PAGE analysis; conditions: dose 1.5-12.5 µM
# [25] = target: T1, Collagenase ColH; assay: Inhibition of Clostridium histolyticum CoLH assessed as inhibition constant using M MOCAcPro-Leu-Gly-Leu-A2pr-(DNP)Ala-Arg-NH2 as substrate incubated for 10 mins by fluorescence spectrophotometer analysis
# [26] = Stability of compound in DMEM medium at 200 uM incubated for 2 hrs by LC-MS analysis; type: physicochemical
# [27] = target: Collagenase ColA (Bacillus cereus) (UniProt Q81BJ6); assay: Reversible inhibition of Bacillus cereus collagenase unit ColA at 4.375 uM using quenched fluorescent FSI-1 as substrate incubated for 2 min by rapid dilution assay
# [28] = system: Bacillus cereus; assay: Antibacterial activity against Bacillus cereus AH187 assessed as minimal inhibitory concentration incubated for 48 hrs microplate reader analysis; type: functional
# [29] = system: Bacillus cereus; assay: In vivo inhibition of Bacillus cereus AH187 ColQ1 infected in Galleria mellonella larvae assessed as increase in survival rate at 200 uM incubated for 3 days; type: functional; conditions: AH187, 72 h, time 3 day
# Collagenase ColQ1 (Bacillus cereus), sequence (B9J3S4 whole entry): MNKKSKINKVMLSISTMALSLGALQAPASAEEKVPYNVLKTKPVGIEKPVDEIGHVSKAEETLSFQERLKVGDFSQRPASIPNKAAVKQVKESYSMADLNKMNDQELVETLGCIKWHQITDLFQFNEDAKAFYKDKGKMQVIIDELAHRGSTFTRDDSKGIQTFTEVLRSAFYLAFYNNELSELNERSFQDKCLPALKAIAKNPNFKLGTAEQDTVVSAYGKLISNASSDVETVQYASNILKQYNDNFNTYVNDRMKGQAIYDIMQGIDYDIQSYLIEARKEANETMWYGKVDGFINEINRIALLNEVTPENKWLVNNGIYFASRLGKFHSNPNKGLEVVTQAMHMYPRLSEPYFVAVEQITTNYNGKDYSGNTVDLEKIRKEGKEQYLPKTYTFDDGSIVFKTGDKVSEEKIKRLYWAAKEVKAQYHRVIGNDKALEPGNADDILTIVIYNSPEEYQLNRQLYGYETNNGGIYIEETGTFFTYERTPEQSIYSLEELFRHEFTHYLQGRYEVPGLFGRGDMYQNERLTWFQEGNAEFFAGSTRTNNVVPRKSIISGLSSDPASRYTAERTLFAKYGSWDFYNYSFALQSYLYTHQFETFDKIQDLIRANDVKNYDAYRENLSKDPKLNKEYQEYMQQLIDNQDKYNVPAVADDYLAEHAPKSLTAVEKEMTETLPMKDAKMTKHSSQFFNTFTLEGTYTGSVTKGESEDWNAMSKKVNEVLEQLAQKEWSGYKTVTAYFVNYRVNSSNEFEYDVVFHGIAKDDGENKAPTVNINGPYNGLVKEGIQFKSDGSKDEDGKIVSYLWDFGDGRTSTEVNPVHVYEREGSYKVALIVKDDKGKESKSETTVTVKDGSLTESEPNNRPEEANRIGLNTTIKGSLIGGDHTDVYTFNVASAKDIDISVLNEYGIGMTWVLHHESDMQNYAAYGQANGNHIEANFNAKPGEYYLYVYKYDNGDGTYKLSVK
# Collagenase ColA (Bacillus cereus), sequence (Q81BJ6 whole entry): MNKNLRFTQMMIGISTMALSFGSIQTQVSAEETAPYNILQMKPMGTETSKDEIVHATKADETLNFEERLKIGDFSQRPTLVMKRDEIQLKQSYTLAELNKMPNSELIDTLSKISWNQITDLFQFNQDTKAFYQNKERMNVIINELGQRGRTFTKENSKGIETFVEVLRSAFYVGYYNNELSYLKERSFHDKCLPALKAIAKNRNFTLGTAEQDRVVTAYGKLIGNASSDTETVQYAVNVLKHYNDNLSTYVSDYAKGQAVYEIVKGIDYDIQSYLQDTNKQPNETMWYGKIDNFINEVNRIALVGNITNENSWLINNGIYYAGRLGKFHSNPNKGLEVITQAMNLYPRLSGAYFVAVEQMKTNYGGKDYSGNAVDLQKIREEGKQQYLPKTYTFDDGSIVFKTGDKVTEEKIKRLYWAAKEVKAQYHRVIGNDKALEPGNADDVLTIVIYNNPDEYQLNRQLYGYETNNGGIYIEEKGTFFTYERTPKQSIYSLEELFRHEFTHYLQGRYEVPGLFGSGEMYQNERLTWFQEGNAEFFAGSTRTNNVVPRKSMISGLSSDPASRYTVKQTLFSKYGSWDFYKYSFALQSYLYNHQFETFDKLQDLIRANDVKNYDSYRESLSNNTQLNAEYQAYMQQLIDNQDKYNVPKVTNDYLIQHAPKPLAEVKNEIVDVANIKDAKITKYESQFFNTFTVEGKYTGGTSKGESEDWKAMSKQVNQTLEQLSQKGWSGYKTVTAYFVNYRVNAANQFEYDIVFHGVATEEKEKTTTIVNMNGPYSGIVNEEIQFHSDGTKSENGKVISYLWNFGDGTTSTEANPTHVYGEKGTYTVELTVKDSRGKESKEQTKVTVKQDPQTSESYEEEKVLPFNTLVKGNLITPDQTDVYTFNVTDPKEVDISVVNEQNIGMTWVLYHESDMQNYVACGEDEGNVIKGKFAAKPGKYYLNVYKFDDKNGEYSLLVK
# Neutrophil collagenase, sequence (P22894 whole entry): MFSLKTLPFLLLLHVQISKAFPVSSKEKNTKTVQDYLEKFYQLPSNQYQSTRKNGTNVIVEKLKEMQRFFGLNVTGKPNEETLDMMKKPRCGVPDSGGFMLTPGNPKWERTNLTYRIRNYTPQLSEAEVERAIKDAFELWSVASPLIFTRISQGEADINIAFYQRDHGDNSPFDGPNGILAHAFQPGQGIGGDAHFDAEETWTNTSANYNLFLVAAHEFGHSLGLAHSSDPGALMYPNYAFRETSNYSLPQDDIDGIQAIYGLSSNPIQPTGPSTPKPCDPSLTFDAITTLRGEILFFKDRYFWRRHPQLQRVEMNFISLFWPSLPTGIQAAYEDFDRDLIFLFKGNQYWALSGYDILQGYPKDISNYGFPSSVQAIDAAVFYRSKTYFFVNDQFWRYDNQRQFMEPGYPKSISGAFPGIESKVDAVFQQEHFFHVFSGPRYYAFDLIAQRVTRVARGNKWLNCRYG
# 72 kDa type IV collagenase, sequence (P08253 whole entry): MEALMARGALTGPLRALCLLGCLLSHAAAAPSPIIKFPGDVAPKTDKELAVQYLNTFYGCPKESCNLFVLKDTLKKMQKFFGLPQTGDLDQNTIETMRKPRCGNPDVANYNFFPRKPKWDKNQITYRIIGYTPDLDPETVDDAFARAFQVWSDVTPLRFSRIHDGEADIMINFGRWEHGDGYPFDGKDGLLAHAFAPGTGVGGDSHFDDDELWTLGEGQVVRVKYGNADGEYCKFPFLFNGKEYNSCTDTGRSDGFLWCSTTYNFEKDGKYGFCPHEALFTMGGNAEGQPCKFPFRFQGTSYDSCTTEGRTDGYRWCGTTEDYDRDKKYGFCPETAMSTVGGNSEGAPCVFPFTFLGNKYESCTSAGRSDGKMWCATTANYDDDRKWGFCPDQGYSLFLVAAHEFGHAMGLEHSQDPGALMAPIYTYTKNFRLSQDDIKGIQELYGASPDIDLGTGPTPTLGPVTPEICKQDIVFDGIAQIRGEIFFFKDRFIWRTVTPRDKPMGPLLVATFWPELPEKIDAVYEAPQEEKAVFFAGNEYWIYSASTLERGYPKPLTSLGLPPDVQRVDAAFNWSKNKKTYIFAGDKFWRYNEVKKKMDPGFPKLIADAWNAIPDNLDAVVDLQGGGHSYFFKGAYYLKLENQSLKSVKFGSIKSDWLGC
smiles,measurement,setting,value
Cc1ccc2nc(P(=O)(O)O)c(P(=O)(O)O)nc2c1,inhibition,[1],Active
same,inhibition,[2],Active
same,inhibition,[3],Active
O=C(O)CN(CC1c2ccccc2C=Cc2ccccc21)C(=O)NS(=O)(=O)c1ccc(F)cc1,pIC50,[4],7.68
same,pKi,[5],8.05
same,pKi,[6],7.89
O=P(O)(O)c1nc2ccc(Br)cc2nc1P(=O)(O)O,inhibition,[1],Active
same,inhibition,[7],Active
same,inhibition,[8],Active
NCCCC(O)(P(=O)(O)O)P(=O)(O)O,inhibition,[9],Active
same,inhibition,[10],Active
same,inhibition,[11],Active
same,inhibition,[12],Active
O=P(O)(O)c1nc2ccc(-c3ccc(Cl)cc3)cc2nc1P(=O)(O)O,pIC50,[13],< 4.00
same,inhibition,[14],Active
same,inhibition,[10],Active
same,inhibition,[11],Active
same,inhibition,[12],Active
same,inhibition,[15],Active
same,inhibition,[16],Active
same,inhibition,[17],Active
same,inhibition in vivo at 100 µM,[18],35%
COc1cc2ccc(=O)oc2cc1OC [SCOPARONE],pIC50,[4],7.62
CC(=O)c1ccc(NC(=O)CSC(N)=O)cc1,pIC50,[19],8.00
O=C(Nc1ccc(Cl)c(Cl)c1)c1ccc2nc(P(=O)(O)O)c(P(=O)(O)O)nc2c1,pIC50,[13],< 4.00
same,inhibition,[1],Active
same,inhibition,[20],Active
same,inhibition,[21],Active
same,inhibition,[22],Active
same,inhibition in vivo at 100 µM,[18],50%
O=P(O)(O)c1nc2ccc(F)cc2nc1P(=O)(O)O,inhibition,[23],< 5%
O=P(O)(O)c1nc2ccccc2nc1P(=O)(O)O,inhibition,[24],Active
CC(NC(=O)C(Cc1ccccc1)NC(=O)NS(=O)(=O)c1ccc(F)cc1)C(=O)Nc1nnc(S)s1 (centres undefined),pKi,[25],6.70
CC(=O)Nc1ccccc1OCc1cn(CCNC(=O)C(CC(C)C)C(=O)NO)nn1 (centres undefined),pIC50,[13],< 4.00
same,Stability,[26],Stable
same,inhibition,[27],Active
same,inhibition,[15],Active
same,inhibition,[16],Active
O=P(O)(O)C(Sc1ccc(Cl)cc1)P(=O)(O)O,inhibition,[10],Active
same,inhibition,[11],Active
same,inhibition,[12],Active
CCOP(=O)(OCC)c1nc2ccc(OC)cc2nc1P(=O)(OCC)OCC,inhibition,[23],< 5%
O=P(O)(O)c1nc2cc(Cl)c(Cl)cc2nc1P(=O)(O)O,inhibition,[9],Active
same,inhibition,[20],Active
same,inhibition,[21],Active
same,inhibition,[22],Active
same,inhibition,[15],Active
same,inhibition,[16],Active
same,inhibition,[17],Active
same,MIC50,[28],100 µM
same,inhibition in vivo at 200 µM,[29],35%
CC(=O)Nc1ccccc1OCc1cn(CCNC(=O)C(Cc2ccccc2)C(=O)NO)nn1 (centres undefined),inhibition,[27],Active
same,inhibition,[15],Active
same,inhibition,[16],Active
